Columns and labels:
Assay type in all cases: in vivo
[1] = system: ducksalad (Heteranthera limosa); assay: Test B flooded paddy: ducksalad; settings: Flood; 250 g ai/ha; applied to paddy water at 2-leaf stage; visually evaluated after 13 to 15 days
Outline: (§1)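 Each compound is applied to the floodwater of pots holding 2-leaf seedlings, water standing 3 cm over the soil throughout. Plants stay in a greenhouse 13 to 15 days before visual scoring against controls from 0 (no effect) to 100 (complete control).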

[2] = system: barnyardgrass (Echinochloa crus-galli); assay: Test A pre-/postemergence: barnyardgrass
Outline: (§2)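 Compounds, formulated with surfactant in non-phytotoxic solvent, were applied as a directed soil spray preemergence and as postemergence sprays to 2–10 cm, one- to two-leaf seedlings grown in loam soil blended with sand; visual injury, 0–100, assessed ~10 days post-treatment against untreated controls.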

[3] = system: foxtail, giant (giant foxtail, Setaria faberii); assay: Test A pre-/postemergence: foxtail, giant
Outline: as §2

[4] = system: crabgrass, large (large crabgrass, Digitaria sanguinalis); assay: Test A pre-/postemergence: crabgrass, large
Outline: as §2

[5] = system: wheat (Triticum aestivum); assay: Test A pre-/postemergence: wheat
Outline: as §2

[6] = system: velvetleaf (Abutilon theophrasti); assay: Test A pre-/postemergence: velvetleaf
Outline: as §2

[7] = system: morningglory (Ipomoea spp.); assay: Test A pre-/postemergence: morningglory
Outline: as §2

[8] = system: sedge, umbrella (small-flower umbrella sedge Cyperus difformis); assay: Test B flooded paddy: sedge, umbrella; settings: Flood; 250 g ai/ha; applied to paddy water at 2-leaf stage; visually evaluated after 13 to 15 days
Outline: as §1

[9] = system: corn (Zea mays); assay: Test A pre-/postemergence: corn
Outline: as §2

[10] = system: rice (Oryza sativa); assay: Test B flooded paddy: rice; settings: Flood; 250 g ai/ha; applied to paddy water at 2-leaf stage; visually evaluated after 13 to 15 days
Outline: as §1

[11] = system: barnyardgrass (Echinochloa crus-galli); assay: Test B flooded paddy: barnyardgrass; settings: Flood; 250 g ai/ha; applied to paddy water at 2-leaf stage; visually evaluated after 13 to 15 days
Outline: as §1

[12] = system: pigweed (Amaranthus retroflexus); assay: Test A pre-/postemergence: pigweed
Outline: as §2

[13] = Postemergence, 125 g ai/ha, 0 to 100 scale, 0 is no effect, 100 is complete control
[14] = Postemergence, 500 g ai/ha, visual rating on 0 to 100 scale (0 no effect, 100 complete control), approximately ten days
[15] = Preemergence, 125 g ai/ha, 0 to 100 scale (0 no effect, 100 complete control)
[16] = Preemergence, 500 g ai/ha, 0 to 100 scale, 0 is no effect, 100 is complete control
[17] = Preemergence, 125 g ai/ha, 0 to 100 scale where 0 is no effect and 100 is complete control
[18] = Preemergence, 500 g ai/ha, 0 to 100 scale (0 no effect, 100 complete control)
[19] = Postemergence, 500 g ai/ha, 0 to 100 scale, 0 is no effect, 100 is complete control

Cc1nn(-c2ccccc2Cl)nc1C(=O)c1cccc(C(F)(F)F)c1 [Compound 5]
Plant response rating, Ducksalad (0 to 100 scale, 0 is no effect, 100 is complete control) [1]: 0 | Barnyardgrass plant response rating [2, 13]: 0 | Barnyardgrass plant response rating [2, 14]: 0 | Plant response rating, Barnyardgrass [2, 15]: 0 | Plant response rating, Barnyardgrass [2, 16]: 0 | Foxtail, Giant plant response rating [3, 13]: 0 | Foxtail, Giant plant response rating [3, 14]: 0 | Plant response rating, Foxtail, Giant [3, 15]: 0 | Plant response rating, Foxtail, Giant [3, 16]: 0 | Crabgrass, Large plant response rating [4, 13]: 0 | Crabgrass, Large plant response rating [4, 14]: 0 | Plant response rating, Crabgrass, Large [4, 15]: 0 | Plant response rating, Crabgrass, Large [4, 16]: 0 | Wheat plant response rating [5, 13]: 0 | Wheat plant response rating [5, 14]: 0 | Plant response rating, Wheat [5, 15]: 0 | Plant response rating, Wheat [5, 16]: 0 | Velvetleaf plant response rating [6, 13]: 0 | Velvetleaf plant response rating [6, 14]: 0 | Plant response rating, Velvetleaf [6, 15]: 0 | Plant response rating, Velvetleaf [6, 16]: 0 | Morningglory plant response rating [7, 13]: 0 | Morningglory plant response rating [7, 14]: 0 | Plant response rating, Morningglory [7, 15]: 0 | Plant response rating, Morningglory [7, 16]: 0 | Plant response rating, Sedge, Umbrella (0 to 100 scale, 0 is no effect, 100 is complete control) [8]: 0 | Corn plant response rating [9, 13]: 0 | Corn plant response rating [9, 14]: 0 | Plant response rating, Corn [9, 15]: 0 | Plant response rating, Corn [9, 16]: 0 | Plant response rating, Rice (0 to 100 scale, 0 is no effect, 100 is complete control) [10]: 0 | Plant response rating, Barnyardgrass (0 to 100 scale, 0 is no effect, 100 is complete control) [11]: 0 | Pigweed plant response rating [12, 13]: 10 | Pigweed plant response rating [12, 14]: 30 | Plant response rating, Pigweed [12, 15]: 0 | Plant response rating, Pigweed [12, 16]: 0

Fc1ccc(-n2nc(F)c(Cc3ccnc(C(F)(F)F)c3)n2)cc1 [Compound 159]
Plant response rating, Ducksalad (0 to 100 scale, 0 is no effect, 100 is complete control) [1]: 20 | Plant response rating, Barnyardgrass [2, 13]: 50 | Barnyardgrass plant response rating [2, 14]: 80 | Plant response rating, Barnyardgrass [2, 17]: 10 | Plant response rating, Barnyardgrass [2, 18]: 80 | Plant response rating, Foxtail, Giant [3, 13]: 40 | Foxtail, Giant plant response rating [3, 14]: 90 | Plant response rating, Foxtail, Giant [3, 17]: 40 | Plant response rating, Foxtail, Giant [3, 18]: 90 | Plant response rating, Crabgrass, Large [4, 13]: 20 | Crabgrass, Large plant response rating [4, 14]: 40 | Plant response rating, Crabgrass, Large [4, 17]: 10 | Plant response rating, Crabgrass, Large [4, 18]: 30 | Plant response rating, Wheat [5, 13]: 0 | Wheat plant response rating [5, 14]: 30 | Plant response rating, Wheat [5, 17]: 0 | Plant response rating, Wheat [5, 18]: 0 | Plant response rating, Velvetleaf [6, 13]: 20 | Velvetleaf plant response rating [6, 14]: 60 | Plant response rating, Velvetleaf [6, 17]: 0 | Plant response rating, Velvetleaf [6, 18]: 0 | Plant response rating, Morningglory [7, 13]: 60 | Morningglory plant response rating [7, 14]: 90 | Plant response rating, Morningglory [7, 17]: 0 | Plant response rating, Morningglory [7, 18]: 0 | Plant response rating, Sedge, Umbrella (0 to 100 scale, 0 is no effect, 100 is complete control) [8]: 60 | Plant response rating, Corn [9, 13]: 20 | Corn plant response rating [9, 14]: 30 | Plant response rating, Corn [9, 17]: 0 | Plant response rating, Corn [9, 18]: 0 | Plant response rating, Rice (0 to 100 scale, 0 is no effect, 100 is complete control) [10]: 30 | Plant response rating, Barnyardgrass (0 to 100 scale, 0 is no effect, 100 is complete control) [11]: 30 | Plant response rating, Pigweed [12, 13]: 90 | Pigweed plant response rating [12, 14]: 100 | Plant response rating, Pigweed [12, 17]: 70 | Plant response rating, Pigweed [12, 18]: 90

O=C(c1ccnc(C(F)(F)F)c1)c1nn(-c2ccc(F)cc2)nc1F [Compound 158]
Plant response rating, Ducksalad (0 to 100 scale, 0 is no effect, 100 is complete control) [1]: 0 | Plant response rating, Barnyardgrass [2, 13]: 0 | Barnyardgrass plant response rating [2, 14]: 0 | Plant response rating, Barnyardgrass [2, 17]: 0 | Plant response rating, Barnyardgrass [2, 18]: 0 | Plant response rating, Foxtail, Giant [3, 13]: 0 | Foxtail, Giant plant response rating [3, 14]: 0 | Plant response rating, Foxtail, Giant [3, 17]: 0 | Plant response rating, Foxtail, Giant [3, 18]: 0 | Plant response rating, Crabgrass, Large [4, 13]: 0 | Crabgrass, Large plant response rating [4, 14]: 20 | Plant response rating, Crabgrass, Large [4, 17]: 0 | Plant response rating, Crabgrass, Large [4, 18]: 0 | Plant response rating, Wheat [5, 13]: 0 | Wheat plant response rating [5, 14]: 0 | Plant response rating, Wheat [5, 17]: 0 | Plant response rating, Wheat [5, 18]: 0 | Plant response rating, Velvetleaf [6, 13]: 0 | Velvetleaf plant response rating [6, 14]: 0 | Plant response rating, Velvetleaf [6, 17]: 0 | Plant response rating, Velvetleaf [6, 18]: 0 | Plant response rating, Morningglory [7, 13]: 0 | Morningglory plant response rating [7, 14]: 10 | Plant response rating, Morningglory [7, 17]: 0 | Plant response rating, Morningglory [7, 18]: 0 | Plant response rating, Sedge, Umbrella (0 to 100 scale, 0 is no effect, 100 is complete control) [8]: 0 | Plant response rating, Corn [9, 13]: 0 | Corn plant response rating [9, 14]: 20 | Plant response rating, Corn [9, 17]: 0 | Plant response rating, Corn [9, 18]: 0 | Plant response rating, Rice (0 to 100 scale, 0 is no effect, 100 is complete control) [10]: 75 | Plant response rating, Barnyardgrass (0 to 100 scale, 0 is no effect, 100 is complete control) [11]: 0 | Plant response rating, Pigweed [12, 13]: 10 | Pigweed plant response rating [12, 14]: 80 | Plant response rating, Pigweed [12, 17]: 0 | Plant response rating, Pigweed [12, 18]: 0

Cc1nn(-c2ccc(F)cc2Cl)nc1Cc1ccnc(C(F)(F)F)c1 [Compound 65]
Plant response rating, Ducksalad (0 to 100 scale, 0 is no effect, 100 is complete control) [1]: 60 | Barnyardgrass plant response rating [2, 13]: 10 | Barnyardgrass plant response rating [2, 14]: 40 | Plant response rating, Barnyardgrass [2, 15]: 10 | Plant response rating, Barnyardgrass [2, 16]: 70 | Foxtail, Giant plant response rating [3, 13]: 20 | Foxtail, Giant plant response rating [3, 14]: 70 | Plant response rating, Foxtail, Giant [3, 15]: 90 | Plant response rating, Foxtail, Giant [3, 16]: 100 | Crabgrass, Large plant response rating [4, 13]: 20 | Crabgrass, Large plant response rating [4, 14]: 50 | Plant response rating, Crabgrass, Large [4, 15]: 30 | Plant response rating, Crabgrass, Large [4, 16]: 100 | Wheat plant response rating [5, 13]: 0 | Wheat plant response rating [5, 14]: 20 | Plant response rating, Wheat [5, 15]: 0 | Plant response rating, Wheat [5, 16]: 0 | Velvetleaf plant response rating [6, 13]: 30 | Velvetleaf plant response rating [6, 14]: 60 | Plant response rating, Velvetleaf [6, 15]: 0 | Plant response rating, Velvetleaf [6, 16]: 10 | Plant response rating, Morningglory [7, 15]: 10 | Plant response rating, Morningglory [7, 16]: 20 | Plant response rating, Sedge, Umbrella (0 to 100 scale, 0 is no effect, 100 is complete control) [8]: 75 | Corn plant response rating [9, 13]: 10 | Corn plant response rating [9, 14]: 20 | Plant response rating, Corn [9, 15]: 0 | Plant response rating, Corn [9, 16]: 10 | Plant response rating, Rice (0 to 100 scale, 0 is no effect, 100 is complete control) [10]: 25 | Plant response rating, Barnyardgrass (0 to 100 scale, 0 is no effect, 100 is complete control) [11]: 30 | Pigweed plant response rating [12, 13]: 90 | Pigweed plant response rating [12, 14]: 100 | Plant response rating, Pigweed [12, 15]: 80 | Plant response rating, Pigweed [12, 16]: 100

Cc1nn(-c2ccc(C(F)(F)F)cn2)nc1C(=NO)c1cccc(C(F)(F)F)c1 [Compound 201]
Plant response rating, Ducksalad (0 to 100 scale, 0 is no effect, 100 is complete control) [1]: 0 | Plant response rating, Barnyardgrass [2, 13]: 0 | Barnyardgrass plant response rating [2, 19]: 10 | Plant response rating, Barnyardgrass [2, 17]: 0 | Plant response rating, Barnyardgrass [2, 18]: 0 | Plant response rating, Foxtail, Giant [3, 13]: 0 | Foxtail, Giant plant response rating [3, 19]: 10 | Plant response rating, Foxtail, Giant [3, 17]: 0 | Plant response rating, Foxtail, Giant [3, 18]: 20 | Plant response rating, Crabgrass, Large [4, 13]: 20 | Crabgrass, Large plant response rating [4, 19]: 30 | Plant response rating, Crabgrass, Large [4, 17]: 0 | Plant response rating, Crabgrass, Large [4, 18]: 20 | Plant response rating, Wheat [5, 13]: 0 | Wheat plant response rating [5, 19]: 10 | Plant response rating, Wheat [5, 17]: 0 | Plant response rating, Wheat [5, 18]: 0 | Plant response rating, Velvetleaf [6, 13]: 20 | Velvetleaf plant response rating [6, 19]: 40 | Plant response rating, Velvetleaf [6, 17]: 0 | Plant response rating, Velvetleaf [6, 18]: 0 | Plant response rating, Morningglory [7, 13]: 10 | Morningglory plant response rating [7, 19]: 50 | Plant response rating, Morningglory [7, 17]: 0 | Plant response rating, Morningglory [7, 18]: 0 | Plant response rating, Sedge, Umbrella (0 to 100 scale, 0 is no effect, 100 is complete control) [8]: 0 | Plant response rating, Corn [9, 13]: 10 | Corn plant response rating [9, 19]: 20 | Plant response rating, Corn [9, 17]: 0 | Plant response rating, Corn [9, 18]: 0 | Plant response rating, Rice (0 to 100 scale, 0 is no effect, 100 is complete control) [10]: 0 | Plant response rating, Barnyardgrass (0 to 100 scale, 0 is no effect, 100 is complete control) [11]: 0 | Plant response rating, Pigweed [12, 13]: 60 | Pigweed plant response rating [12, 19]: 100 | Plant response rating, Pigweed [12, 17]: 0 | Plant response rating, Pigweed [12, 18]: 10
